Source: publication PMC3978495, “Synthesis and Preliminary Evaluation of a 2-Oxoquinoline Carboxylic Acid Derivative for PET Imaging the Cannabinoid Type 2 Receptor” (Pharmaceuticals, 2014)
Like-named read-outs stand apart in the source and are kept apart here.

Tests used:
human CB1 (hCB1) = molecular target: T1, human CB1 (hCB1) (Homo sapiens, UniProt P21554); experiment: Competition binding assay with [3H]CP-55,940, membranes of CHO-K1 cells transfected with hCB1; details: three independent experiments, [3H]CP-55,940 1.4 nM, read-out: binding affinity (Ki) towards CB1
T1 construct: purchased PerkinElmer, Waltham, MA, USA; host or cells: CHO-K1 cells (stably transfected), membrane preparation
Protocol: All samples were prepared in triplicates.

hCB2 = details: reported data; read-out: reported binding affinity towards human CB2; cited from earlier work
hCB1 = details: reported data; read-out: reported binding affinity towards CB1; cited from earlier work
human CB2 (hCB2) = human CB2 (hCB2) (Homo sapiens, UniProt P34972); experiment: Competition binding assay with [3H]CP-55,940, membranes of CHO-K1 cells transfected with hCB2
Protocol: Frozen membrane preparations from CHO-K1 cells transfected with human CB1 (hCB1) and CB2 (hCB2), respectively (PerkinElmer, Waltham, MA, USA), were thawed on ice and diluted to a final protein concentration of 1 µg/mL in assay buffer (50 mM TRIS/HCl, 1 mM EDTA (Applichem, Darmstadt, Germany), 3 mM MgCl2, pH 7.4, containing 0.05% bovine serum albumin, BSA). […] All samples were prepared in triplicates. After 90 min, 3 mL ice cold assay buffer was added and samples were immediately filtered through Whatman GF/C filters (pre-soaked in 0.05% polyethylenimine) and washed twice with 3 mL ice cold assay buffer.

CB2 in rat spleen slices = molecular target: T2, CB2 in rat spleen slices (Rattus norvegicus, UniProt Q9QZN9); experiment: In vitro autoradiography on rat spleen slices; format: binding
T2 construct: performed on 20 µm tissue slices (rat/mouse spleen) adsorbed to SuperFrost Plus slides; from tissue; host or cells: rat spleen slices (20 µm)
T2 sequence (Q9QZN9 1-360): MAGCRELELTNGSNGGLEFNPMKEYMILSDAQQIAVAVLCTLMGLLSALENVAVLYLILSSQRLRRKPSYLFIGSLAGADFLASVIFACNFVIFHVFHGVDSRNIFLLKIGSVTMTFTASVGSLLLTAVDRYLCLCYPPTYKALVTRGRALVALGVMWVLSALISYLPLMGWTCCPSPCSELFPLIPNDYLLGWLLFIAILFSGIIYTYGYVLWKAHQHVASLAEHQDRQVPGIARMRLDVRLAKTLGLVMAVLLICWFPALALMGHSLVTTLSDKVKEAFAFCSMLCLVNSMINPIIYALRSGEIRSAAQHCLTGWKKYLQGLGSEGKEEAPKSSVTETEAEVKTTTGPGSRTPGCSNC
Protocol: (§1) In vitro autoradiography with [^11C]KP23 was performed on 20 µm tissue slices (rat/mouse spleen) adsorbed to SuperFrost Plus slides. Slices were thawed (10 min) on ice before pre-incubation with incubation buffer (50 mM TRIS/HCl, pH 7.4, containing 5% BSA) at 4 °C for 10 min. Excess solution was carefully removed and the tissue slices were dried in a ventilated hood for 10 min. Then slides were incubated with 0.6 or 0.2 nM [^11C]KP23 alone or together with specific CB2 agonist (GW405833, 1 µM) in incubation buffer. After incubation for 15 min at RT in a humid chamber, slides were washed twice with ice cold washing buffer (50 mM TRIS/HCl, pH 7.4, 1% BSA, 5% EtOH) for 2 min each and dipped twice in water. Dried slides were exposed to a phosphor imager plate for 30 min and the plate was scanned in a BAS5000 reader (Fujifilm, Dielsdorf, Switzerland).

[1] = molecular target: T3, CB2 in mouse spleen slices (Mus musculus, UniProt P47936); experiment: In vitro autoradiography on mouse spleen slices; format: binding
T3 construct: performed on 20 µm tissue slices (rat/mouse spleen) adsorbed to SuperFrost Plus slides; from tissue; host or cells: mouse spleen slices (20 µm)
Protocol: as §1

[2] = In vitro stability in phosphate buffer (PBS); format: physicochemical; details: PBS pH 7.4, 37 °C, 40 min
Protocol: (§2) To test the plasma stability of the radioligand, 10 µL (4 MBq) of [^11C]KP23 solution were added to phosphate buffer (300 µL, 4 mM NaH2PO4/Na2HPO4, 155 mM NaCl, pH 7.4), mouse and rat plasma (300 µL), respectively. The mixture was vortexed and four aliquots of 70 µL were incubated at 37 °C. Ice cold acetonitrile (100 µL) was added to stop the enzymatic reactions at different time points (0, 10, 20 and 40 min). After centrifugation (10,000 g, 3 min), the supernatant was passed through a filter (0.45 µm, Minisart SRP 4, Sartorius Stedim Biotech, Goettingen, Germany) and analyzed by UPLC.

[3] = In vitro stability in mouse plasma; format: in vitro ADME; details: 37 °C, 40 min
Protocol: as §2

[4] = In vitro stability in rat plasma; format: in vitro ADME; details: 37 °C, 40 min
Protocol: as §2

[5] = In vivo dynamic PET imaging in Wistar rats; design: species or system rat
Protocol: PET scanning was performed with the GE VISTA eXplore PET/CT tomograph (Sedecal, Madrid, Spain). The scanner is characterized by high sensitivity (absolute central point source sensitivity of 4% for the […] energy windows) and an axial field of view of 4.8 cm. Male Wistar rats (278 ± 2 g, n = 2) were immobilized by isoflurane inhalation and the tracer was injected into a tail vein on the tomographic bed. Tracer accumulation in the spleen or brain were recorded by dynamic one-bed position PET scans over 60 min starting with the injection of 13 respectively 40 MBq (0.05 to 0.15 nmol) of [^11C]KP23. PET data was reconstructed by 3-dimensional FORE/2-dimensional OSEM in user-defined time frames with a voxel size of 0.3875 × 0.3875 × 0.775 mm. Singles and random corrections but no attenuation correction were applied. Image files were evaluated with the software PMOD v3.4 (PMOD Technologies Inc., Zurich, Switzerland). Time activity curves (TACs) of brain regions were generated with the implemented rat brain region of interest (ROI) template and TACs of the abdominal region with the respective ROIs generated by the PMOD segmentation tool. Spleen, liver and background TACs were confirmed by analysis of manually drawn regions of interest. Standardized uptake values (SUV) were calculated as tissue activities (Bq/cm^3), normalized to the injected dose per body weight (Bq/g).

[6] = rat, in vivo, iv; for percentage of parent tracer radioactivity in blood plasma: Wistar
Protocol: [^11C]KP23 was administered intravenously to a restrained Wistar rat (413 g) by tail vein injection (ca. 160 MBq). The animal was sacrificed by decapitation 30 min p.i. and blood and urine were collected. Whole blood was collected in heparin-coated tubes (BD Vacutainers, Plymouth, UK) and centrifuged at 5,000 g for 5 min, 4 °C. The proteins of the supernatant plasma and urine were precipitated by addition of an equal volume of acetonitrile and centrifuged at 5,000 g for another 5 min. The supernatants were filtered and analyzed by UPLC. For the determination of in vivo radiometabolites at 15 min p.i. blood samples were withdrawn from the tail vein opposite to the injection site.

T3 sequence (P47936 whole entry): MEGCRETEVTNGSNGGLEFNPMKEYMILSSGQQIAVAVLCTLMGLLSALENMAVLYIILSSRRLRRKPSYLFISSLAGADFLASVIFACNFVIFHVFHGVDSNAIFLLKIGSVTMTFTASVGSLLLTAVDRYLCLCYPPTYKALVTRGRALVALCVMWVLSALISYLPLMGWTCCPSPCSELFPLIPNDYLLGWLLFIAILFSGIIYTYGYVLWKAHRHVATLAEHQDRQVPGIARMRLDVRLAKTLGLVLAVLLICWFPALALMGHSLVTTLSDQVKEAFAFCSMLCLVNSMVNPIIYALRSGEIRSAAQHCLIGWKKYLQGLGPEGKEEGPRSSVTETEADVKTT
T1 sequence (P21554 whole entry): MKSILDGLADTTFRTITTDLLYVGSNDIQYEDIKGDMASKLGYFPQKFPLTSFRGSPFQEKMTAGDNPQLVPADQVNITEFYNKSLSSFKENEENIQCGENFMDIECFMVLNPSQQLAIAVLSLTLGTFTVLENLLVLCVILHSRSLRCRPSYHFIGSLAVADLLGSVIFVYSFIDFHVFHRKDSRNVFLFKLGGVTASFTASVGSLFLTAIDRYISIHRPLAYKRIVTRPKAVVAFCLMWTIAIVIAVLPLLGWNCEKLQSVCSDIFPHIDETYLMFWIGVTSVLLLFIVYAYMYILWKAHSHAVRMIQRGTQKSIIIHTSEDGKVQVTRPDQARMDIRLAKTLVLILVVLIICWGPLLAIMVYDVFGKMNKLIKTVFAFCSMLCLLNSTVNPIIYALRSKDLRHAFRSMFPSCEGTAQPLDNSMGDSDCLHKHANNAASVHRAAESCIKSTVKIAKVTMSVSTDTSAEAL
human CB2 (hCB2), sequence (P34972 whole entry): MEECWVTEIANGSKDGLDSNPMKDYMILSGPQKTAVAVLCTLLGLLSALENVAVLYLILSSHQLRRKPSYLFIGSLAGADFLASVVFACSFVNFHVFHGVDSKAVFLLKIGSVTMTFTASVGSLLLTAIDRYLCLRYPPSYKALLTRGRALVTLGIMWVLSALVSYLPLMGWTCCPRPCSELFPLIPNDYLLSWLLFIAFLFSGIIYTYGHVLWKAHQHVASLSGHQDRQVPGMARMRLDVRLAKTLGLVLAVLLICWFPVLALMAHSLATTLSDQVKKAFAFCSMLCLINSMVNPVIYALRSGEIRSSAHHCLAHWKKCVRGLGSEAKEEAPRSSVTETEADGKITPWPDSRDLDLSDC

| SMILES | Ki (human CB1 (hCB1)) | Ki (hCB2) | Ki (hCB1) | Ki (human CB2 (hCB2)) | non-specific binding in spleen tissue (CB2 in rat spleen slices; rat spleen slices (Figure 1 A2), with 1 μM GW4058233) | binding to CB2 in autoradiography (CB2 in rat spleen slices; rat spleen slices, 0.6 nM tracer, blocked by excess (1 μM) GW4058233) | non-specific binding in spleen tissue ([1]; mouse spleen slices (Figure 1 B2), with 1 μM GW4058233) | binding to CB2 in autoradiography ([1]; mouse spleen slices, 0.6 nM tracer, blocked by excess (1 μM) GW4058233) | stability (radioactive degradation products) [2] | plasma stability (radioactive degradation products) [3] | plasma stability (radioactive degradation products) [4] | brain uptake ([5]; healthy Wistar rat, i.v., PET, region of interest TAC analysis) | initial period of steadily increasing activity concentration in spleen, then slow washout ([5]; male, Wistar, rat, in vivo, iv) | time of radioactivity peak in liver ([5]; male, Wistar, rat, in vivo, iv) | spleen uptake ([5]; rat, in vivo, iv) | percentage of parent tracer radioactivity in blood plasma ([6]; 15 min) | percentage of parent tracer radioactivity in blood plasma ([6]; 30 min) | number of radiometabolites in blood plasma (more hydrophilic than parent) [6] |
| --- | --- | --- | --- | --- | --- | --- | --- | --- | --- | --- | --- | --- | --- | --- | --- | --- | --- | --- |
| CCCCOc1c(OC)ccc2cc(C(=O)NCC(F)c3ccccc3)c(=O)[nH]c12 (stereo not drawn) [KP23, 8-butoxy-N-(2-fluoro-2-phenylethyl)-7-methoxy-2-oxo-1,2-dihydroquinoline-3-carboxamide] | > 10000 nM | 0.8 ± 0.3 nM | > 10000 nM | 6.8 ± 5.8 nM | – | – | – | – | – | – | – | – | – | – | – | – | – | – |
| CCCCOc1c(O[11CH3])ccc2cc(C(=O)NCC(F)c3ccccc3)c(=O)[nH]c12 (stereo not drawn) [[^11C]KP23] | – | – | – | – | relatively high non-specific binding | specific binding | relatively high non-specific binding | specific binding | No radioactive degradation products | No radioactive degradation products | No radioactive degradation products | low uptake | 8 min p.i. | around 4 min p.i. | high spleen uptake | 40% | 25% | two to three |
